# Measured values: article PMC10630842, “Impact of dietary plant flavonoids on 7,8‐dihydroxyflavone transepithelial transport in human intestinal Caco‐2 cells” (Food Science & Nutrition, 2023)
# “And” between values parts separate entries of the source, which are not always exact repeats. Equal entries are not always repeated.
# Legend:
# in vitro = in vitro ADME, human; settings: human, Caco-2
# Method: (§1) For this experiment, the 7,8‐DHF sample was first dissolved in a small amount of dimethyl sulfoxide (DMSO) and then diluted with HBSS to a working concentration of 10 μmol/L. The final DMSO concentration in the working solution was controlled to be less than 0.5%. […] Flavonoid samples were added to the AP and BL sides at equimolar concentrations with 7,8‐DHF (the sample concentration in HBSS solution was 10 μmol/L). Prior to transport, dietary flavonoids were pretreated on the AP side for 30 min. Then, these flavonoid reagents were removed, and a 0.5 mL HBSS solution containing various dietary flavonoids with 7,8‐DHF (concentration of 10 μmol/L) was added to the AP side, while 1.5 mL of blank HBSS was added to the BL side. Conversely, 1.5 mL of HBSS solution containing various dietary flavonoids with 7,8‐DHF (10 μmol/L) was added to the BL side, and 0.5 mL of blank HBSS was added to the AP side.
# (§2) The magnitude of the apparent permeability coefficients (P app, cm/s) and efflux ratio (ER) reflects the ability of the test substance to pass through the monolayer cells and the speed of absorption.
# (§3) (4) ER=PappAB/PappBA where P app AB is the apparent permeability coefficient for AP → BL transport, and P app BA is the apparent permeability coefficient for BL → AP transport.
# (§4) Effect of different concentrations of specific flavonoids on 7,8‐DHF transepithelial transport was investigated. The operating procedure was followed by above section, with the exception that specific dietary flavonoid samples were added to the AP and BL sides at varying molar ratios with 7,8‐DHF (2:1, 1:1, 1:2, and 1:4). The specific dietary flavonoids were dissolved in HBSS while controlling the DMSO concentration to be less than 0.5%.
# Caco‐2 cells [1] = experiment: Uptake amount of 7,8-DHF in Caco-2 cells at the end of transport; type: in vitro ADME, human
# Method: The cell surface was rapidly washed three times with ice-cold HBSS solution. The cells were harvested using a cell scraper and resuspended in 1.0 mL of 0.1% extraction solution (phosphate: methanol = 1:1, v/v) before being homogenized in an ultrasonicator.
# Caco‐2 cells [2] = experiment: Cytotoxicity, CCK-8 assay; type: cell-based, human; settings: 24 h
# Method: To determine the cytotoxicity of 7,8‐DHF for transport experiments, a CCK‐8 assay was carried out (Han et al., [2023]). A total of 200 μL culture medium containing Caco‐2 cells at a density of 3 × 10^4 cells/mL was seeded in a 96‐well plate and incubated for 24 h to allow for adherence. After the incubation period, the culture medium was removed and replaced with 200 μL fresh medium containing 7,8‐DHF at concentrations of 1, 10, 50, 100, and 300 μmol/L. Additionally, 200 μL medium without 7,8‐DHF was added as the control group, while medium without cells was used as the blank group. Following 24 h of drug stimulation, 10 μL CCK‐8 reagent was added to each well followed by another 2 h incubation. The absorbance was measured at 450 nm wavelength using an enzyme‐linked immunosorbent assay reader (Eonmei, BioTek). Each sample was repeated five times, and the cell survival rate was calculated using the following formula: (2) Cell survival rate%=ODsample group−ODblank group/ODcontrol group−ODblank group×100 where OD represents the absorbance of each sample at 450 nm wavelength.
# [3] = Stability of 7,8-DHF in HBSS; type: physicochemical; settings: HBSS pH 7.4, 37°C, 10 μmol/L
# Method: (§5) Simultaneously, 0.5 mL of the aforementioned solution was added to the AP side of the Transwell culture plate containing Caco‐2 cells, while 1.5 mL of blank HBSS added to the BL side. […] The Caco‐2 cell stability test was performed under both inhibitory and non‐inhibitory conditions, and the 7,8‐DHF content in the samples was determined.
# (§6) A volume of 200 μL of receiving solution was transferred into a 1 mL centrifuge tube, followed by adding 10 μL of internal standard solution (10 μg/mL apigenin) and 200 μL of methanol. […] Thereafter, 5 μL of the supernatant was injected into the UPLC system. The UPLC system used in this study was a Waters ACQUITY UPLC H‐CLASS series instrument (Waters) equipped with a quaternary solvent manager, a sample manager‐flow through needle, a chromatographic column heater and a PDA eλ detector. […] The mobile phase comprised of methanol (solvent A) and 0.05% trifluoroacetic acid of ultrapure water (solvent B). The gradient elution program was as follows: 20% solvent A (0~1 min), 20%~80% solvent A (1~5 min), 80%~100% solvent A (5~7 min), 100 ~ 20% solvent A (7~8 min), and 20% solvent A (8~9 min). The flow rate maintained at 0.2 mL/min, the temperature was set to 37°C, and the PDA detector wavelength was set at 330 nm.
# [4] = set-up: method as in Liu et al., 2013; settings: C57BL/6 mice, ref Liu et al., 2013; cited from earlier work
# [5] = set-up: method as in Xiao and Högger (2015); settings: DMEM solutions during Caco‐2 cell incubation; ref Xiao and Högger (2015); cited from earlier work
# [6] = Stability (recovery) of 7,8-DHF in Caco-2 cells with or without inhibitors; settings: human, Caco-2, pH 7.4
# Method: as §5, §6
# Caco‐2 cells [7] = experiment: as above; settings: 60 and 240 min incubation
# Method: as §5, §6
# Caco‐2 monolayers = experiment: Bi-directional transepithelial transport of 7,8-DHF across Caco-2 monolayers with flavonoids screened as P-gp inhibitors (Papp, ER); type: in vitro ADME, human; settings: for Modulatory effect on 7,8‐DHF transport: flavonoid equimolar with 7,8‐DHF 10 μmol/L; as to Modulatory effect on 7,8‐DHF transport: key: + indicates that the inhibitor has a significant effect on 7,8‐DHF transport; − indicates that the inhibitor has no significant effect on 7,8‐DHF transport
# Method: as §1, §2, §3, §4
# [8] = In vitro digestion stability of 7,8-DHF (simulated saliva, gastric fluid, intestinal fluid); type: in vitro ADME; settings: 7,8‐DHF combined with the named flavonoid
# Method: The in vitro digestion model proposed by Versantvoort et al.'s report was modified as follows (Versantvoort et al., [2005]): […] The pH of the system was then adjusted to 7.5 and simulated intestinal fluid containing pancreatin and bile salts was added for 2 h of stirring. During the process, a certain amount of the digested liquid sample from the simulated saliva, gastric fluid, and intestinal fluid were taken, and ethanol was added to precipitate and inactivate the enzymes. […] A 1 mL aliquot was placed in a high-speed centrifuge tube (3K15, Sigma) and centrifuged at 4°C, 11000 × g for 15 min.
# [9] = human, Caco-2, 150 min, 10 μmol/L
smiles,measurement,setting,value
"O=c1cc(-c2ccccc2)oc2c(O)c(O)ccc12 [7,8‐DHF, 7,8‐Dihydroxyflavone]","Papp A→B at 150 min, 10 μmol/L",in vitro,1.19 ± 0.08 ×10⁻⁶ cm/s
same,"Papp B→A at 150 min, 10 μmol/L",in vitro,1.91 ± 0.13 ×10⁻⁶ cm/s
same,"efflux ratio at 150 min, 10 μmol/L",in vitro,1.61
same,"Uptake amount of 7,8‐DHF in Caco‐2 cells","Caco‐2 cells [1]; control, 7,8‐DHF without inhibitor, end of 150 min transport",0.378 ± 0.018 nmol/mg protein
same,Cell toxicity toward Caco‐2 cells (CCK‐8),Caco‐2 cells [2]; 300 μmol/L,certain cell toxicity
same,Cell toxicity toward Caco‐2 cells (CCK‐8),Caco‐2 cells [2]; concentration range 1~100 μmol/L,no significant cell toxicity
same,"Recovery of 7,8-DHF",[3]; 60 min,98.71±1.07%
same,"Recovery of 7,8-DHF",[3]; 240 min,97.26±2.17%
same,Oral bioavailability,[4],4.6%
same,Half‐degradation time,[5],above 180 min
same,"recovery at 60 min, 10 μmol/L",[6],99.11 ± 0.57%
same,"recovery at 240 min, 10 μmol/L",[6],97.74 ± 0.42%
same,"Metabolism of 7,8‐DHF in Caco‐2 cells (recovery vs blank HBSS)",Caco‐2 cells [7],not metabolized
"O=c1cc(-c2ccccc2)oc2cc(O)c(O)c(O)c12 [Baicalein, baicalein]","Modulatory effect on 7,8‐DHF transport",Caco‐2 monolayers; verapamil 100 μmol/L,+
same,"ER of 7,8‐DHF in presence of the named inhibitor",Caco‐2 monolayers; [9],1.59
"COc1ccc(-c2coc3cc(O)cc(O)c3c2=O)cc1 [Biochanin A, biochanin A]","Modulatory effect on 7,8‐DHF transport",Caco‐2 monolayers; verapamil 100 μmol/L,−
"O=C(O[C@@H]1Cc2c(O)cc(O)cc2O[C@@H]1c1cc(O)c(O)c(O)c1)c1cc(O)c(O)c(O)c1 [EGCG, epigallocatechin gallate]","ER of 7,8‐DHF in presence of the named inhibitor","Caco‐2 monolayers; 7,8‐DHF 10 μmol/L, flavonoid equimolar (1:1, 10 μmol/L), verapamil 100 μmol/L",1.34
same,"P app AB of 7,8‐DHF in presence of the named inhibitor","Caco‐2 monolayers; 7,8‐DHF 10 μmol/L, flavonoid equimolar (1:1, 10 μmol/L), verapamil 100 μmol/L, AP → BL, 150 min",1.21 ± 0.03 ×10^−6 cm/s
same,"P app BA of 7,8‐DHF in presence of the named inhibitor","Caco‐2 monolayers; 7,8‐DHF 10 μmol/L, flavonoid equimolar (1:1, 10 μmol/L), verapamil 100 μmol/L, BL → AP, 150 min",1.63 ± 0.05 ×10^−6 cm/s and 1.62 ± 0.05 ×10^−6 cm/s
same,"ER of 7,8‐DHF in presence of the named inhibitor","Caco‐2 monolayers; 7,8‐DHF 10 μmol/L, flavonoid equimolar (1:1, 10 μmol/L), verapamil 100 μmol/L, listed as epigallocatechin gallate",less than 1.5
same,"Modulatory effect on 7,8‐DHF transport",Caco‐2 monolayers; verapamil 100 μmol/L,+
"O=c1c(O)c(-c2ccc(O)c(O)c2)oc2cc(O)ccc12 [Fisetin, fisetin]","Modulatory effect on 7,8‐DHF transport",Caco‐2 monolayers; verapamil 100 μmol/L,+
"O=c1c(-c2ccc(O)cc2)coc2cc(O)cc(O)c12 [Genistein, genistein]","Modulatory effect on 7,8‐DHF transport",Caco‐2 monolayers; verapamil 100 μmol/L,+
"O=c1cc(-c2ccc(O)c(O)c2)oc2cc(O)c([C@@H]3O[C@H](CO)[C@@H](O)[C@H](O)[C@H]3O)c(O)c12 [Isoorientin, isoorientin]","Modulatory effect on 7,8‐DHF transport",Caco‐2 monolayers; verapamil 100 μmol/L,+
"O=c1cc(-c2ccc(O)cc2)oc2cc(O)c([C@@H]3O[C@H](CO)[C@@H](O)[C@H](O)[C@H]3O)c(O)c12 [Isovitexin, isovitexin]","Modulatory effect on 7,8‐DHF transport",Caco‐2 monolayers; verapamil 100 μmol/L,+
same,"ER of 7,8‐DHF in presence of the named inhibitor",Caco‐2 monolayers; [9],1.55
same,"P app AB of 7,8‐DHF in presence of the named inhibitor",Caco‐2 monolayers; [9],1.27 ± 0.08 ×10^−6 cm/s
same,"P app BA of 7,8‐DHF in presence of the named inhibitor",Caco‐2 monolayers; [9],1.97 ± 0.11 ×10^−6 cm/s
"O=c1c(O)c(-c2ccc(O)cc2)oc2cc(O)cc(O)c12 [Kaempferol, kaempferol]","Modulatory effect on 7,8‐DHF transport",Caco‐2 monolayers; verapamil 100 μmol/L,+
same,"Effect of combined flavonoid on retention of 7,8‐DHF in simulated in vitro digestion",[8],no significant effects were observed
"O=c1c(O)c(-c2cc(O)c(O)c(O)c2)oc2cc(O)cc(O)c12 [Myricetin, myricetin]","Modulatory effect on 7,8‐DHF transport",Caco‐2 monolayers; verapamil 100 μmol/L,+
"O=C1C[C@@H](c2ccc(O)cc2)Oc2cc(O)cc(O)c21 [Naringenin, naringenin]","Modulatory effect on 7,8‐DHF transport",Caco‐2 monolayers; verapamil 100 μmol/L,−
same,"P app AB of 7,8‐DHF in presence of the named inhibitor",Caco‐2 monolayers; [9],1.16 ± 0.02 ×10^−6 cm/s
same,"P app BA of 7,8‐DHF in presence of the named inhibitor",Caco‐2 monolayers; [9],1.88 ± 0.11 ×10^−6 cm/s
O=c1cc(-c2ccc(O)c(O)c2)oc2c([C@@H]3O[C@H](CO)[C@@H](O)[C@H](O)[C@H]3O)c(O)cc(O)c12 [Orientin],"Modulatory effect on 7,8‐DHF transport",Caco‐2 monolayers; verapamil 100 μmol/L,−
"O=c1c(O)c(-c2ccc(O)c(O)c2)oc2cc(O)cc(O)c12 [Quercetin, quercetin]","Modulatory effect on 7,8‐DHF transport",Caco‐2 monolayers; verapamil 100 μmol/L,+
same,"Uptake amount of 7,8‐DHF in Caco‐2 cells with the named flavonoid","Caco‐2 cells [1]; molar concentration ratio flavonoid to 7,8‐DHF 1:2",did not increase the uptake
same,"Uptake amount of 7,8‐DHF in Caco‐2 cells with the named flavonoid","Caco‐2 cells [1]; molar concentration ratio flavonoid to 7,8‐DHF 4:1",did not increase the uptake
same,"Effect of combined flavonoid on retention of 7,8‐DHF in simulated in vitro digestion",[8],no significant effects were observed
"O=c1cc(-c2ccc(O)cc2)oc2c([C@@H]3O[C@H](CO)[C@@H](O)[C@H](O)[C@H]3O)c(O)cc(O)c12 [Vitexin, vitexin]","Modulatory effect on 7,8‐DHF transport",Caco‐2 monolayers; verapamil 100 μmol/L,−
same,"P app AB of 7,8‐DHF in presence of the named inhibitor",Caco‐2 monolayers; [9],1.14 ± 0.16 ×10^−6 cm/s
same,"P app BA of 7,8‐DHF in presence of the named inhibitor",Caco‐2 monolayers; [9],1.94 ± 0.03 ×10^−6 cm/s
same,"Uptake amount of 7,8‐DHF in Caco‐2 cells after treatment with the named inhibitor","Caco‐2 cells [1]; flavonoid: 7,8‐DHF 1:1 (equimolar), verapamil 100 μmol/L, end of 150 min transport",significant decrease
